{
  "source": "ChEMBL document CHEMBL1201862",
  "about": "“PubChem BioAssay data set” (2004)",
  "test_in_all_cases": "NCI tumour cell line growth inhibition, 48 h",
  "key": {"786-0": {"system": "786-0"}, "A498": {"system": "A498"}, "A549": {"system": "A549"}, "ACHN": {"system": "ACHN"}, "BT-549": {"system": "BT-549"}, "CAKI-1": {"system": "CAKI-1"}, "CCRF-CEM": {"system": "CCRF-CEM"}, "COLO 205": {"system": "COLO 205"}, "DU-145": {"system": "DU-145"}, "EKVX": {"system": "EKVX"}, "HCT-116": {"system": "HCT-116"}, "HCT-15": {"system": "HCT-15"}, "HL-60": {"system": "HL-60"}, "HOP-62": {"system": "HOP-62"}, "HT-29": {"system": "HT-29"}, "Hs-578T": {"system": "Hs-578T"}, "IGROV-1": {"system": "IGROV-1"}, "K562": {"system": "K562"}, "KM12": {"system": "KM12"}, "LOX IMVI": {"system": "LOX IMVI"}, "M14": {"system": "M14"}, "MCF7": {"system": "MCF7"}, "MDA-MB-231": {"system": "MDA-MB-231"}, "MDA-MB-435": {"system": "MDA-MB-435"}, "MDA-N": {"system": "MDA-N"}, "MOLT-4": {"system": "MOLT-4"}, "Malme-3M": {"system": "Malme-3M"}, "NCI-H226": {"system": "NCI-H226"}, "NCI-H23": {"system": "NCI-H23"}, "NCI-H522": {"system": "NCI-H522"}, "NCI/ADR-RES": {"system": "NCI/ADR-RES"}, "OVCAR-3": {"system": "OVCAR-3"}, "OVCAR-4": {"system": "OVCAR-4"}, "OVCAR-5": {"system": "OVCAR-5"}, "OVCAR-8": {"system": "OVCAR-8"}, "PC-3": {"system": "PC-3"}, "RPMI-8226": {"system": "RPMI-8226"}, "RXF 393": {"system": "RXF 393"}, "SF-268": {"system": "SF-268"}, "SF-295": {"system": "SF-295"}, "SF-539": {"system": "SF-539"}, "SK-MEL-2": {"system": "SK-MEL-2"}, "SK-MEL-5": {"system": "SK-MEL-5"}, "SK-OV-3": {"system": "SK-OV-3"}, "SN12C": {"system": "SN12C"}, "SNB-19": {"system": "SNB-19"}, "SNB-75": {"system": "SNB-75"}, "SR": {"system": "SR"}, "SW-620": {"system": "SW-620"}, "T47D": {"system": "T47D"}, "TK-10": {"system": "TK-10"}, "U-251": {"system": "U-251"}, "UACC-257": {"system": "UACC-257"}, "UACC-62": {"system": "UACC-62"}, "UO-31": {"system": "UO-31"}},
  "note": "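1) Cells in 96-well plates. 2) Compound, 48 h, 5 concentrations. 3) Linear interpolation between surrounding doses. 4) Unreached endpoint = highest concentration. At the GI50, growth is halved.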 Calls of active or inactive are those of the source. No stated cut-off is given here; in the data, active = GI50 up to about 1.1 µM and inactive = higher.",
  "data": [
    {"smiles": "N#Cc1c(C#N)c(-c2ccccc2)n(-c2ccccc2)c1N", "values": [
      {"measurement": "GI50", "setting": "786-0", "value": "82.6 µM (inactive)"},
      {"measurement": "GI50", "setting": "A498", "value": "> 100 µM (inactive)"},
      {"measurement": "GI50", "setting": "A549", "value": "> 100 µM (inactive)"},
      {"measurement": "GI50", "setting": "ACHN", "value": "50.7 µM (inactive)"},
      {"measurement": "GI50", "setting": "BT-549", "value": "48.4 µM (inactive)"},
      {"measurement": "GI50", "setting": "CAKI-1", "value": "> 100 µM (inactive)"},
      {"measurement": "GI50", "setting": "CCRF-CEM", "value": "87.5 µM (inactive)"},
      {"measurement": "GI50", "setting": "COLO 205", "value": "> 100 µM (inactive)"},
      {"measurement": "GI50", "setting": "DU-145", "value": "85.7 µM (inactive)"},
      {"measurement": "GI50", "setting": "EKVX", "value": "73.8 µM (inactive)"},
      {"measurement": "GI50", "setting": "HCT-116", "value": "5.51 µM (inactive)"},
      {"measurement": "GI50", "setting": "HCT-15", "value": "> 100", "unit": "µM"},
      {"measurement": "GI50", "setting": "HL-60", "value": "> 100 µM (inactive)"},
      {"measurement": "GI50", "setting": "HOP-62", "value": "84.9 µM (inactive)"},
      {"measurement": "GI50", "setting": "HT-29", "value": "> 100 µM (inactive)"},
      {"measurement": "GI50", "setting": "Hs-578T", "value": "21 µM (inactive)"},
      {"measurement": "GI50", "setting": "IGROV-1", "value": "88.5 µM (inactive)"},
      {"measurement": "GI50", "setting": "K562", "value": "19.7 µM (inactive)"},
      {"measurement": "GI50", "setting": "KM12", "value": "> 100 µM (inactive)"},
      {"measurement": "GI50", "setting": "LOX IMVI", "value": "> 100 µM (inactive)"},
      {"measurement": "GI50", "setting": "M14", "value": "> 100 µM (inactive)"},
      {"measurement": "GI50", "setting": "MCF7", "value": "> 100 µM (inactive)"},
      {"measurement": "GI50", "setting": "MDA-MB-231", "value": "> 100 µM (inactive)"},
      {"measurement": "GI50", "setting": "MDA-MB-435", "value": "> 100 µM (inactive)"},
      {"measurement": "GI50", "setting": "MDA-N", "value": "> 100 µM (inactive)"},
      {"measurement": "GI50", "setting": "MOLT-4", "value": "60.3 µM (inactive)"},
      {"measurement": "GI50", "setting": "Malme-3M", "value": "> 100 µM (inactive)"},
      {"measurement": "GI50", "setting": "NCI-H226", "value": "72.4 µM (inactive)"},
      {"measurement": "GI50", "setting": "NCI-H23", "value": "80.7 µM (inactive)"},
      {"measurement": "GI50", "setting": "NCI-H522", "value": "41.9 µM (inactive)"},
      {"measurement": "GI50", "setting": "NCI/ADR-RES", "value": "> 100 µM (inactive)"},
      {"measurement": "GI50", "setting": "OVCAR-3", "value": "> 100 µM (inactive)"},
      {"measurement": "GI50", "setting": "OVCAR-4", "value": "56.2 µM (inactive)"},
      {"measurement": "GI50", "setting": "OVCAR-5", "value": "> 100 µM (inactive)"},
      {"measurement": "GI50", "setting": "OVCAR-8", "value": "> 100 µM (inactive)"},
      {"measurement": "GI50", "setting": "PC-3", "value": "> 100 µM (inactive)"},
      {"measurement": "GI50", "setting": "RPMI-8226", "value": "5.87 µM (inactive)"},
      {"measurement": "GI50", "setting": "RXF 393", "value": "41.6 µM (inactive)"},
      {"measurement": "GI50", "setting": "SF-268", "value": "88.3 µM (inactive)"},
      {"measurement": "GI50", "setting": "SF-295", "value": "15.3 µM (inactive)"},
      {"measurement": "GI50", "setting": "SF-539", "value": "20.2 µM (inactive)"},
      {"measurement": "GI50", "setting": "SK-MEL-2", "value": "99.1 µM (inactive)"},
      {"measurement": "GI50", "setting": "SK-MEL-5", "value": "18.9 µM (inactive)"},
      {"measurement": "GI50", "setting": "SK-OV-3", "value": "83.6 µM (inactive)"},
      {"measurement": "GI50", "setting": "SN12C", "value": "> 100 µM (inactive)"},
      {"measurement": "GI50", "setting": "SNB-19", "value": "30.4 µM (inactive)"},
      {"measurement": "GI50", "setting": "SNB-75", "value": "1.27 µM (inactive)"},
      {"measurement": "GI50", "setting": "SR", "value": "73.8 µM (inactive)"},
      {"measurement": "GI50", "setting": "SW-620", "value": "> 100 µM (inactive)"},
      {"measurement": "GI50", "setting": "T47D", "value": "6.52 µM (inactive)"},
      {"measurement": "GI50", "setting": "TK-10", "value": "> 100 µM (inactive)"},
      {"measurement": "GI50", "setting": "U-251", "value": "33.4 µM (inactive)"},
      {"measurement": "GI50", "setting": "UACC-257", "value": "> 100 µM (inactive)"},
      {"measurement": "GI50", "setting": "UACC-62", "value": "69.5 µM (inactive)"},
      {"measurement": "GI50", "setting": "UO-31", "value": "12.8 µM (inactive)"}
    ]}
  ]
}
